Measured values reported in ChEMBL document CHEMBL2346632, “A one-pot domino synthesis and discovery of highly functionalized dihydrobenzo[b]thiophenes as AChE inhibitors” (Bioorg Med Chem Lett, 2013).

Biological target: Acetylcholinesterase (Electrophorus electricus, UniProt O42275)
Assay: Inhibition of electric eel AChE after 30 mins by Ellman's method

Sequence of Acetylcholinesterase (O42275 whole entry): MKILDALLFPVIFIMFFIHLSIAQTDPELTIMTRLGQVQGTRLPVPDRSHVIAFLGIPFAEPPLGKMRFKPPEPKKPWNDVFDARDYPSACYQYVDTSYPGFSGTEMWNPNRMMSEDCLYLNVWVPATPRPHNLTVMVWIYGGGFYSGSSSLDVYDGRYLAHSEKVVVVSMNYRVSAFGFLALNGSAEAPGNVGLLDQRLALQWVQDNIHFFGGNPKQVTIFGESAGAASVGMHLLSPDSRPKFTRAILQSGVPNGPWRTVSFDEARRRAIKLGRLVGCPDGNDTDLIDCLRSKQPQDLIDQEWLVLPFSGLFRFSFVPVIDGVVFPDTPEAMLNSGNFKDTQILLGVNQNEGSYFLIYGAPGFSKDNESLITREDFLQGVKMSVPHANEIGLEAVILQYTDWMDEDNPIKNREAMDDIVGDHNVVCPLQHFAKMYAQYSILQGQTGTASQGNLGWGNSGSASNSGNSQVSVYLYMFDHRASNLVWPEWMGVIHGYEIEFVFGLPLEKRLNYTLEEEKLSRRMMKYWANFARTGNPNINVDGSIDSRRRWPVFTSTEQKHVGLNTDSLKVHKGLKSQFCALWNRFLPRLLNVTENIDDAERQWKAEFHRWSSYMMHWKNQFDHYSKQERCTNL

`N#Cc1c(N)c(C#N)c(-c2ccc(Cl)cc2)c2c1CC(c1ccc(Cl)cc1)S2` (racemic) and `N#Cc1c(N)c(C#N)c(-c2ccc(Br)cc2)c2c1CC(c1ccc(Cl)cc1)S2` (racemic) are within 1.5-fold of each other in IC50: 34.1 µM for the first, 41.3 µM for the second.

Going from `COc1ccc(-c2c(C#N)c(N)c(C#N)c3c2SC(c2ccc(OC)cc2)C3)cc1` (racemic) to `COc1ccc(C2Cc3c(C#N)c(N)c(C#N)c(-c4ccc(C)cc4)c3S2)cc1` (racemic), the IC50 rises from 4.16 µM to 11.6 µM (2.8-fold).

`N#Cc1c(N)c(C#N)c(-c2ccc(Br)cc2)c2c1CC(c1ccccc1)S2` (racemic) and `N#Cc1c(N)c(C#N)c(-c2ccc(F)cc2)c2c1CC(c1ccccc1)S2` (racemic) are within 1.5-fold of each other in IC50: 37.9 µM for the first, 32.3 µM for the second.

First: Cc1ccc(-c2c(C#N)c(N)c(C#N)c3c2SC(c2ccccc2)C3)cc1 (racemic)
Second: N#Cc1c(N)c(C#N)c(-c2ccc(Cl)cc2)c2c1CC(c1ccccc1)S2 (racemic)
The IC50 of the first is 3-fold lower: 9.62 µM for the first, 29.2 µM for the second.

Compared with `CC(C)c1ccc(-c2c(C#N)c(N)c(C#N)c3c2SC(c2ccccc2)C3)cc1` (racemic), `COc1ccc(-c2c(C#N)c(N)c(C#N)c3c2SC(c2ccccc2)C3)cc1` (racemic) is 7.3-fold lower in IC50: 37.1 µM for the first, 5.11 µM for the second.

First: Cc1ccc(C2Cc3c(C#N)c(N)c(C#N)c(-c4ccc(F)cc4)c3S2)cc1 (racemic)
Second: N#Cc1c(N)c(C#N)c(-c2ccc(F)cc2)c2c1CC(c1ccc(Cl)cc1)S2 (racemic)
The IC50 of the first is 2.2-fold lower: 18.1 µM for the first, 39.2 µM for the second. The first is the more potent here.

`Cc1ccc(-c2c(C#N)c(N)c(C#N)c3c2SC(c2ccc(Cl)cc2)C3)cc1` (racemic) and `Cc1ccc(C2Cc3c(C#N)c(N)c(C#N)c(-c4ccc(Cl)cc4)c3S2)cc1` (racemic) are within 1.5-fold of each other in IC50: 17.3 µM for the first, 13.6 µM for the second.

First: COc1ccc(-c2c(C#N)c(N)c(C#N)c3c2SC(c2ccc(Cl)cc2)C3)cc1 (racemic)
Second: COc1ccc(-c2c(C#N)c(N)c(C#N)c3c2SC(c2ccc(C)cc2)C3)cc1 (racemic)
The IC50 of the first is 2.4-fold higher: 26.6 µM for the first, 11.3 µM for the second.

`CC(C)c1ccc(C2Cc3c(C#N)c(N)c(C#N)c(-c4ccc(Cl)cc4)c3S2)cc1` (racemic) and `CC(C)c1ccc(C2Cc3c(C#N)c(N)c(C#N)c(-c4ccc(F)cc4)c3S2)cc1` (racemic) are within 1.5-fold of each other in IC50: 48.3 µM for the first, 44.2 µM for the second.

Compared with `Cc1ccc(C2Cc3c(C#N)c(N)c(C#N)c(-c4ccc(Br)cc4)c3S2)cc1` (racemic), `Cc1ccc(-c2c(C#N)c(N)c(C#N)c3c2SC(c2ccc(C)cc2)C3)cc1` (racemic) is 5.7-fold lower in IC50: 24.2 µM for the first, 4.24 µM for the second.
